Test results from US20250049660A1, “ENOL ETHER PROPERFUME” (FIRMENICH SA, priority 2021, published 2025).

Assay: Acid-catalyzed hydrolysis of enol ethers in THF/1 M HCl
Type: physicochemical
Conditions: THF/1M HCl (80:20 v/v), room temperature; for Hydrolysis of enol ethers, percent remaining, initial: initial (time zero)
Protocol: The acid-catalyzed hydrolysis of Compounds 1, 2, 3 and 25 were measured and compared to the hydrolysis of enol ethers report in WO2019243501. Each enol ether was dissolved in a 4:1 THF/1 M HCl mixture and the percent remaining over time measured relative to an internal standard.
Into a 15 mL vial were added 125 mg of enol ether, 60 mg of hexadecane and 10 mL of THE (purged with N2 and containing 2500 ppm of BHT). After mixing, 2 mL of this solution were removed with a volumetric pipet and used to obtain the time zero measurement. 2 mL of 1 M HCl were mixed with the remaining 8 mL of the THF solution. This mixture was divided into 5 mL vials (1 mL per vial). The vials were gently topped with nitrogen and fitted with screw caps around which parafilm was wrapped. The vials were stored at room temperature until analyzed. For analyses, 2 mL of ethyl acetate was added to a vial and mixed. After phase separation, the top phase was collected and washed with saturated sodium carbonate (1 mL). Samples of the organic phase were analyzed by GC-FID. For the time zero sample, 0.5 mL of deionized water was added to the 2 mL taken from the original THE solution. 1 mL of this solution was added to a 5 mL vial and diluted with 2 mL of ethyl acetate and mixed. The top phase was collected and washed with saturated sodium carbonate (1 mL). The top phase then was analyzed by GC-FID. The percent of enol ether remaining was determined by dividing the peak area ratio of the enol ether to internal standard by the ratio measured at time zero.

Compound | Hydrolysis of enol ethers, percent remaining, 5 h | Hydrolysis of enol ethers, percent remaining, 1 d | Hydrolysis of enol ethers, percent remaining, 2 d | Hydrolysis of enol ethers, percent remaining, 3 d | Hydrolysis of enol ethers, percent remaining, 7 d | Hydrolysis of enol ethers, percent remaining, initial
C=CCCCCCCCC=COCCc1ccccc1 [Compound 3, (2-(undeca-1,10-dien-1-yloxy)ethyl)benzene] | 19.9% | 0% | 0% | 0% | 0% | 100%
CCCCCCCCCCC=COCCc1ccccc1 [Compound 1, (2-(dodec-1-en-1-yloxy)ethyl)benzene] | 12.8% | 0% | 0% | 0% | 0% | 100%
CCCCCC(CC)OC=Cc1ccccc1 (stereo not shown) [(2-(octan-3-yloxy)vinyl)benzene, reference compound] |  | 84.9% | 72.0% | 61.7% | 33.6% | 100%
CC/C=C\CCOC=Cc1ccccc1 [(2-(((Z)-hex-3-en-1-yl)oxy)vinyl)benzene, reference compound] |  |  |  | 79.5% | 57.3% | 100%
CCCCCCCCCC(C)C=COC(CC)CCCCC (stereo not shown) [Compound 29, 3-methyl-1-(octan-3-yloxy)dodec-1-ene] | 3.7% |  |  |  |  | 100%
CCCCCCCCCCCC=COCCc1ccccc1 [Compound 2, (2-(tridec-1-en-1-yloxy)ethyl)benzene] | 16.3% | 0% | 0% | 0% | 0% | 100%
C(=Cc1ccccc1)OCCc1ccccc1 [(2-phenethoxyvinyl)benzene, reference compound] |  | 95% | 90% | 83.7% | 66.4% | 100%
CCCCCCCCCC(C)C=COCCc1ccccc1 (stereo not shown) [Compound 25, (2-((3-methyldodec-1-en-1-yl)oxy)ethyl)benzene] | 35.6% | 4.6% | 0% | 0% | 0% | 100%
CC/C=C\CCOC=Cc1ccc(OC)cc1 [1-(2-(((Z)-hex-3-en-1-yl)oxy)vinyl)-4-methoxybenzene, reference compound] |  | 89.1% | 80.2% | 72.4% | 52.5% | 100%
CC/C=C\CCOC=CC(C)CCCCCCCCC (stereo not shown) [Compound 27, 1-(((Z)-hex-3-en-1-yl)oxy)-3-methyldodec-1-ene] | 29.8% |  |  |  |  | 100%
